Data set [1] is described as follows: Dose dependence of 13CO2 concentration in expired air after oral 2-13C-labeled uracil (Example 3). In kind it is in vivo, beagle dogs. The settings on record: dose of 10 to 80 μmol/kg body weight, FIGS. 5 and 6. The method, then:
In 50 ml portions of 0.05N sodium hydroxide, 56.5 mg, 113.1 mg, 226.2 mg, and 452.3 mg of 2-^13C-labeled uracil (Cambridge Isotope Laboratory) were dissolved separately, to prepare solutions with concentrations of 10 μmol/ml, 20 μmol/ml, 40 μmol/ml, and 80 μmol/ml, respectively. The solutions were forcibly administered orally to fasted male beagle dogs (n=3) using oral tubes for dogs, in an amount of 1 ml/kg body weight (dose: […]), and thereafter water was forcibly administered orally in an amount of 2 ml/kg body weight. The expired air was collected before administration, and after 15, 30, 45, 60, 75, 90, 105, 120, 135, 150, 180, 210, and 240 minutes after administration. Then, the ^13C-labeled carbon dioxide concentration in the expired air was measured, and pharmacokinetic parameters (the area under the curve (AUC) and maximum ^13C-labled carbon dioxide concentration (Cmax)) were calculated from the obtained transition curve of the ^13C-labeled carbon dioxide concentration in the expired air.

Data set [2] addresses T1, dihydropyrimidine dehydrogenase (DPD) (Canis lupus familiaris, UniProt A0A8I3P1X8).
T1 construct: Fasted beagle dogs were used as experimental animals; from tissue; host or cells: whole living beagle dogs (in vivo)
T1 sequence (A0A8I3P1X8 1-1026): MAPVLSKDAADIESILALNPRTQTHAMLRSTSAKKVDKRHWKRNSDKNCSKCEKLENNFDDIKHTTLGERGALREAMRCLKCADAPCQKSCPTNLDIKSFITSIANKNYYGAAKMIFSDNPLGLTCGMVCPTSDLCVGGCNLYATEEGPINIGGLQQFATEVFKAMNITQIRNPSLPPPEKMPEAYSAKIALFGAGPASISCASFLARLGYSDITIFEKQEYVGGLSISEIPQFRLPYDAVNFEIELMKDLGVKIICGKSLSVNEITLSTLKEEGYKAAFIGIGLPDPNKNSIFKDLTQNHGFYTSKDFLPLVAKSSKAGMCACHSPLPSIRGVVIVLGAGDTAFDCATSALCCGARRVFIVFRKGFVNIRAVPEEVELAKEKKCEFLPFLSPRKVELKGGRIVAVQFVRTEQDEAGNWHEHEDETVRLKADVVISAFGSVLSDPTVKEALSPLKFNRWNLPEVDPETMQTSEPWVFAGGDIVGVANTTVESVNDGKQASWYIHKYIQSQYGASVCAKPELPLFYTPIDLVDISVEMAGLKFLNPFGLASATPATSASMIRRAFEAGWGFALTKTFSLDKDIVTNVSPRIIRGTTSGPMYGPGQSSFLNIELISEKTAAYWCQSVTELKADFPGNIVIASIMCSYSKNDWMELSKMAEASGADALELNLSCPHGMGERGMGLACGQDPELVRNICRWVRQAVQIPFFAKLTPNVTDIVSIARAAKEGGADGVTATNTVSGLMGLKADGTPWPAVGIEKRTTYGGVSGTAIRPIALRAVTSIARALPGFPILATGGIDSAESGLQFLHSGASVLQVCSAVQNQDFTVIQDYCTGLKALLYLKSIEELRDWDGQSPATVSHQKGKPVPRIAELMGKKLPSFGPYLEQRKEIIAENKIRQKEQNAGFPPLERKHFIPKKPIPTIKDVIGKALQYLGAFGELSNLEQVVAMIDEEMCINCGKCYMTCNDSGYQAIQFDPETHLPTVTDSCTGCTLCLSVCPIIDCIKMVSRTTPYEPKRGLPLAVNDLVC
Kind of data set: 13CO2 excretion in expired air after oral administration of 2-13C-labeled uracil preparation (Example 2). To be noted: FIG. 3. In kind it is in vivo. The method, then: A preparation for determining the pyrimidine metabolic capacity in an oral form was prepared using the same 2-^13C-labeled uracil as used in Example 1 as an active ingredient, and tested for usefulness for measuring pyrimidine metabolic capacity.
2-^13C-labeled uracil (Cambridge Isotope Laboratory) (300 mg) was dissolved in 24 ml of 0.1N NaOH/saline solution (measured out from 200 ml of 0.1N NaOH/saline solution prepared by diluting 2 ml of 10N sodium hydroxide solution with physiological saline). Then, water was added to give 60 ml of a preparation for determining pyrimidine metabolic capacity in the form of an oral solution (containing 50 mg of 2-^13C-labeled uracil per 10 ml of the oral solution).
Fasted beagle dogs were used as experimental animals. In Group 1 (n=3), the preparation prepared above in (1) was orally administered (50 mg/10 ml/body) (test group). […] The concentration of ^13C-labeled carbon dioxide excreted in the expired air was measured in the same manner as in Example 1, using a GC-MS analyzer (ABCA-G, Europa Scientific). […]

The target of data set [3] is T1, dihydropyrimidine dehydrogenase (DPD). Description: 13CO2 excretion in expired air after intravenous injection of 2-13C-labeled uracil preparation (Example 1). In kind it is in vivo. To be noted: FIG. 2. How it is done: Uracil having […] carbon at the 2-position (2-^13C-labeled uracil) was used as an isotope-labeled pyrimidine compound. A preparation for determining the pyrimidine metabolic capacity in the form of an intravenous injection comprising the 2-^13C-labeled uracil as an active ingredient was prepared and tested for usefulness for determining pyrimidine metabolic capacity.
Uracil-2-^13C (Cambridge Isotope Laboratory) (300 mg) was dissolved in 24 ml of 0.1N NaOH/saline solution (measured out from 200 ml of 0.1N NaOH/saline solution prepared by diluting 2 ml of 10N sodium hydroxide solution with physiological saline), to give a preparation for determining the pyrimidine metabolic capacity in the form of an intravenous injection (containing 50 mg of uracil-2-^13C per 4 ml of the injection).
(E)-5-(2-bromovinyl)-uracil (250 mg) and gum arabic (2.25 g) were mixed together, and the mixture was kneaded while adding a slight amount of water, to prepare 45 ml of a suspension (containing 83.3 mg of (E)-5-(2-bromovinyl)-uracil per 15 ml of the suspension).
Fasted beagle dogs were used as experimental animals. […] The concentration of ^13C-labeled carbon dioxide excreted in the collected expired air was measured using a GC-MS analyzer (ABCA-G, Europa Scientific). […]

Data set [4] has as its system pyrimidine metabolic pathway. To be noted: administered to the body; Cancer (Phila), 68, 499-501, 1991; cited from earlier work.
The test system of data set [5] is dihydropyrimidine dehydrogenase (DPD). The settings on record: Cancer Research 46, 1094-1101, 1986; cited from earlier work.

In the case of `O=c1cc[nH][13c](=O)[nH]1` [2-^13C-labeled uracil], the “excretion kinetics in the expired air (AUC and Cmax versus dose)” value in data set [1] is “has linearity”. Besides, the “metabolism and excretion in the expired air as 13CO2” value is “metabolized and excreted in the expired air as ^13CO2” in data set [2] (test group, fasted beagle dogs, oral 50 mg/10 ml/body, expired air 0-240 min); “metabolized and excreted in the expired air as ^13CO2” in data set [3] (test group, fasted beagle dogs, intravenous injection 50 mg/body, expired air 0-240 min).

As for `O=c1[nH]cc(F)c(=O)[nH]1` [5-FU, 5-fluorouracil], the “share of administered 5-FU degraded in the pyrimidine metabolic pathway” value in data set [4] is given as “about 80%”.

`O=c1[nH]cc(/C=C/Br)c(=O)[nH]1` [(E)-5-(2-bromovinyl)-uracil]: the DPD inhibitor activity entry in data set [5] is “known as a dihydropyrimidine dehydrogenase (DPD) inhibitor”. Further, the “excretion of 13CO2 in the expired air after DPD inhibitor pretreatment” value in data set [2] (DPD inhibitor 83.3 mg/15 ml/body orally 1 hour before oral 2-13C-labeled uracil 50 mg/10 ml/body, compared with test group) is on record as “markedly reduced”; in data set [3] (DPD inhibitor 83.3 mg/body orally 1 hour before intravenous 2-13C-labeled uracil 50 mg/body, compared with test group) it was “markedly lower excretion”.

Source of the values: US7488466B2, “Preparation for determining pyrimidine metabolic capacity” (Otsuka Pharmaceutical Co., Ltd., priority 2002, dated 2009).
